# Reference: patent US4374988A, “4-Heteroarylimidazo-[1,5-A]pyrimidines” (American Cyanamid Company, priority 1981, dated 1983)
# How the values were obtained:
# brain-specific receptors = experiment: inhibition of 3H-benzodiazepine (3H-flunitrazepam) binding to brain-specific receptors; set-up: species or system rat (Wistar strain); settings: 1 μM test compound (activity criterion), rat cortex P2 fraction, 0° C., 30 minutes
# rats [1] = experiment: thirsty rat conflict test (non-conditioned passive avoidance); format: in vivo, rat (Wistar strain)
# Description: Another test which has been employed to assess anti-anxiety effects is a non-conditioned passive avoidance procedure described by J. R. Vogel, B. Beer and D. E. Clody, "A Simple and Reliable Conflict Procedure for Testing Anti-Anxiety Agents", Psychopharmacologia, Vol. 21, pages 1-7 (1971). A conflict situation is induced in rats by a modification of this method. The test is referred to herein as the "thirsty rat conflict" test.
# Groups of 8 naive, Wistar strain rats, weighing 200-240 g. each, were deprived of water for 48 hours. The test compounds were administered in single or graded, oral or intraperitoneal doses, suspended in distilled water and one drop of polysorbate 80. The control animals received the vehicle alone. After 30 or 60 minutes, each rat was placed in an individual clear plexiglass chamber. Tap water was available ad libitum from a nipple located in a black plexiglass box adjacent to the main chamber. A circuit carrying a 0.7 milliampere AC shocking current was established between the stainless steel grid floor of the chamber and the nipple. After 20 licks of non-shocked drinking, a fixed ratio of a 2-second "shock-on" and 19 licks "shock-off" cycle began and continued for a total of 3 minutes. The number of shocks taken by each rat during a 3-minute interval was recorded and compared to a control group.
# rats [2] = experiment: protection from pentylenetetrazole-induced clonic seizures in rats; format: in vivo, rat
# Protocol: The anti-anxiety properties of the novel compounds of the invention have been established in a test which indicates anxiolytic activity by the measure of protection from convulsions resulting from the administration of pentylenetetrazole (sold as METROZOL, Reg. T.M.). Single or graded dosage levels of the test compounds were administered orally or intraperitoneally (in a 2% starch vehicle, containing 5% v/v polyethylene glycol and one to two drops of polysorbate 80) to groups of at least 4 rats. Thirty or 60 minutes after administration, the rats were treated intravenously with pentylenetetrazole at a dosage of 23 mg/kg. of body weight. This dose is estimated to cause clonic seizures in 99% of unprotected rats. A test compound is considered active if it protects 50% or more of the rats from clonic seizures. It has been reported (R. T. Hill and D. H. Tedeschi, "Animal Testing and Screening Procedures in Evaluating Psychotropic Drugs" in "An Introduction to Psychopharmacology", Eds. R. R. Rech and K. E. Moore, Raven Press, New York, pages 237-288 (1971)) that there is a high degree of correlation between antagonism of pentylenetetrazole seizures in rats and anti-anxiety effects in higher mammals.
SMILES,inhibition of 3H-benzodiazepine binding (brain-specific receptors) [%],"activity in the thirsty rat conflict test (rats [1]; oral, 25 mg./kg.)","activity in the thirsty rat conflict test (rats [1]; intraperitoneal, 25 mg/kg)","resistance to convulsions induced by pentylenetetrazole (rats [2]; intraperitoneal, 50 mg./kg., pentylenetetrazole 23 mg/kg i.v.)","anxiolytic activity (thirsty rat conflict test) (rats [1]; general statement, oral or intraperitoneal, active if shocks significantly higher than control (Mann-Whitney U test))","ED50 (rats [2]; Rattus norvegicus, oral, dosage effective in 50% of the rats, pentylenetetrazole 23 mg/kg i.v., read-out: ED50, resistance to convulsions induced by pentylenetetrazole) [mg/kg]","anxiolytic activity (protection from pentylenetetrazole convulsions) (rats [2]; general statement, oral or intraperitoneal, active if 50% or more of rats protected)",resistance to convulsions induced by pentylenetetrazole (in words) (rats [2]; oral)
"N#Cc1ncn2c(-c3ccsc3)ccnc12 [Example 2, 4-(3-Thienyl)imidazo[1,5-a]pyrimidine-8-carbonitrile]",20,,,,,,,
"CCOC(=O)c1ncn2c(-c3cccnc3)ccnc12 [Example 15, Ethyl 4-(3-pyridyl)imidazo[1,5-a]pyrimidine-8-carboxylate]",49,inactive,,,,,,
"N#Cc1ncn2c(-c3cccs3)ccnc12 [Example 1, 4-(2-Thienyl)imidazo[1,5-a]pyrimidine-8-carbonitrile]",39,,active,inactive,,,,
"N#Cc1ncn2c(-c3cccnc3)ccnc12 [Example 5, 4-(3-Pyridyl)imidazo[1,5-a]pyrimidine-8-carbonitrile]",19,active,,,shown to possess anxiolytic activity,6.8,shown to possess anxiolytic activity,effective
